Data as given in US10441608B2, “Continuous methods for treating liquids and manufacturing certain constituents (e.g., nanoparticles) in liquids, apparatuses and nanoparticles and nanoparticle/liquid solution(s) resulting therefrom” (Clene Nanomedicine, Inc., priority 2009, dated 2019).
In brackets after ≈: the same amount, converted by molar mass. Several values for one entry are separate records, joined by “and”; a condition that tells them apart may be missing. Identical values can stand only once. Like-named read-outs stand apart in the source and are kept apart here.

Test system: Gram-Positive and Gram Negative bacteria
Assay type: cell-based

C[C@H]1COc2c(N3CCN(C)CC3)c(F)cc3c(=O)c(C(=O)O)cn1c23 [Levofloxacin] was tested, and the “MID/MIC (amount of antibiotic)” value (GP30 Listeria monocytogenes, antibiotic-susceptible clinical isolate) was 8 µg/mL, the “MID/MIC (amount of antibiotic)” value (GP31 MU50 Staphylococcus aureus (MRSA), VISA type strain) was 0.06 µg/mL and the “MID/MIC (amount of antibiotic)” value (GP33 EMRSA16 Staphylococcus aureus (MRSA), SSCmec type 2) was over 8 µg/mL. For the same compound, the “MID/MIC (amount of antibiotic)” value (GP34 EMRSA1 Staphylococcus aureus (MRSA), SSCmec type 3) was 0.12 µg/mL, the “MID/MIC (amount of antibiotic)” value (GP35 EMRSA15 Staphylococcus aureus (MRSA), SSCmec type 4) was 0.06 µg/mL and the “MID/MIC (amount of antibiotic)” value (GP36 HT2001254 Staphylococcus aureus (MRSA), PVL positive) was 0.12 µg/mL. For the same compound, the “MID/MIC (amount of antibiotic)” value (GP37 Streptococcus agalactiae, antibiotic-susceptible clinical isolate) was 1 µg/mL, the “MID/MIC (amount of antibiotic)” value (GP38 Streptococcus agalactiae, macrolide-resistant clinical isolate) was 1 µg/mL and the “MID/MIC (amount of antibiotic)” value (GP39 Group C Streptococcus, antibiotic-susceptible clinical isolate) was 0.5 µg/mL. The “MID/MIC (amount of antibiotic)” value (GP41 Group G Streptococcus, antibiotic-susceptible clinical isolate) was 0.25 µg/mL, the “MID/MIC (amount of antibiotic)” value (GP42 Group G Streptococcus, macrolide-resistant clinical isolate) was 0.25 µg/mL and the “MID/MIC (amount of antibiotic)” value (GP43 Streptococcus mitis, antibiotic-susceptible clinical isolate) was 1 µg/mL. The “MID/MIC (amount of antibiotic)” value (GP46 Streptococcus constellatus, macrolide-resistant clinical isolate) was 1 µg/mL, the “MID/MIC (amount of antibiotic)” value (GP47 Streptococcus oralis, antibiotic-susceptible clinical isolate) was 1 µg/mL and the “MID/MIC (amount of antibiotic)” value (GP48 Streptococcus oralis, macrolide-resistant clinical isolate) was 1 µg/mL. For the same compound, the “MID/MIC (amount of antibiotic)” value (GP49 Streptococcus bovis, antibiotic-susceptible clinical isolate) was 1 µg/mL, the “MID/MIC (amount of antibiotic)” value (GP50 Streptococcus bovis, macrolide-resistant clinical isolate) was 0.5 µg/mL and 1 µg/mL and the “MID/MIC (amount of antibiotic)” value (GP51 Streptococcus sanguis, antibiotic-susceptible clinical isolate) was 1 µg/mL and 0.5 µg/mL. For the same compound, the “MID/MIC (amount of antibiotic)” value (GP52 Streptococcus sanguis, macrolide-resistant clinical isolate) was 1 µg/mL, the “MID/MIC (amount of antibiotic)” value (GP53 Clostridium perfringens, antibiotic-susceptible clinical isolate, supplemented with 2% serum and 1 μg/mL Vit K) was 0.015 µg/mL and the “MID/MIC (amount of antibiotic)” value (GP55 Group C Streptococcus, antibiotic-resistant clinical isolate) was 0.5 µg/mL. The “MIC/MID 50” value (Listeria monocytogenes - antibiotic-susceptible clinical isolate) was 0.50 µg/mL (≈ 1.38 µM), the “MIC/MID 50” value (Moraxella catarrhalis β-lactamase positive clinical isolate (first of two lines so named)) was 0.06 µg/mL (≈ 0.166 µM) and the “MIC/MID 50” value (Moraxella catarrhalis β-lactamase positive clinical isolate (second of two lines so named)) was 0.06 µg/mL (≈ 0.166 µM). The “MIC/MID 50” value (Morganella morganii - multi-drug resistant clinical isolate) was 1.00 µg/mL (≈ 2.77 µM), the “MID/MIC (amount of antibiotic)” value (P8119035 Citrobacter freundii, resistant clinical isolate) was 8 µg/mL and the “MIC/MID 50” value (Proteus mirabilis - antibiotic-susceptible clinical isolate) was 0.06 µg/mL (≈ 0.166 µM). The “MIC/MID 50” value (Proteus mirabilis - multi-drug resistant clinical isolate) was 2.00 µg/mL (≈ 5.53 µM), the “MIC/MID 50” value (Staphylococcus aureus - multi-drug-resistant clinical isolate) was 4.00 µg/mL (≈ 11.1 µM) and the “MIC/MID 50” value (Staphylococcus aureus - teicoplanin-intermediate clinical isolate) was 4.00 µg/mL (≈ 11.1 µM). For the same compound, the “MIC/MID 50” value (Staphylococcus aureus ATCC 25923 - antibiotic-susceptible control strain) was 0.12 µg/mL (≈ 0.332 µM), the “MIC/MID 50” value (Staphylococcus aureus ATCC 43300 - methicillin-resistant control strain) was 0.25 µg/mL (≈ 0.692 µM) and the “MIC/MID 50” value (Staphylococcus epidermidis antibiotic susceptible clinical isolate) was 0.12 µg/mL (≈ 0.332 µM). The “MIC/MID 50” value (Staphylococcus epidermidis methicillin-resistant clinical isolate) was 0.25 µg/mL (≈ 0.692 µM), the “MIC/MID 50” value (Staphylococcus haemolyticus - antibiotic susceptible clinical isolate) was 0.50 µg/mL (≈ 1.38 µM) and the “MIC/MID 50” value (Staphylococcus saprophyticus - antibiotic susceptible clinical isolate) was 0.50 µg/mL (≈ 1.38 µM). For the same compound, the “MIC/MID 50” value (Stenotrophomonas maltophila - antibiotic-resistant clinical isolate) was 1.00 µg/mL (≈ 2.77 µM), the “MIC/MID 50” value (Stenotrophomonas maltophilia - antibiotic-susceptible clinical isolate) was 0.25 µg/mL (≈ 0.692 µM) and the “MIC/MID 50” value (Streptococcus agalactiae - antibiotic-susceptible clinical isolate) was 1.00 µg/mL (≈ 2.77 µM). The “MIC/MID 50” value (Streptococcus agalactiae - macrolide-resistant clinical isolate) was 1.00 µg/mL (≈ 2.77 µM), the “MIC/MID 50” value (Streptococcus bovis - antibiotic-susceptible clinical isolate) was 1.00 µg/mL (≈ 2.77 µM) and the “MIC/MID 50” value (Streptococcus bovis - macrolide-resistant clinical isolate) was 1.00 µg/mL (≈ 2.77 µM). For the same compound, the “MIC/MID 50” value (Streptococcus mitis - macrolide-resistant clinical isolate) was 1.00 µg/mL (≈ 2.77 µM), the “MIC/MID 50” value (Streptococcus oralis - antibiotic-susceptible clinical isolate) was 1.00 µg/mL (≈ 2.77 µM) and the “MIC/MID 50” value (Streptococcus oralis - macrolide-resistant clinical isolate) was 1.00 µg/mL (≈ 2.77 µM). For the same compound, the “MIC/MID 50” value (Streptococcus pneumoniae - ATCC 49619 antibiotic-susceptible control strain) was 1.00 µg/mL (≈ 2.77 µM), the “MIC/MID 50” value (Streptococcus pneumoniae - multi-drug resistant clinical isolate) was 1.00 µg/mL (≈ 2.77 µM) and the “MIC/MID 50” value (Streptococcus pneumoniae - pencillin-susceptible clinical isolate) was 1.00 µg/mL (≈ 2.77 µM). The “MIC/MID 50” value (Streptococcus pneumoniae - penicillin-intermediate clinical isolate) was 0.50 µg/mL (≈ 1.38 µM), the “MIC/MID 50” value (Streptococcus pneumoniae - penicillin-resistant clinical isolate) was 0.50 µg/mL (≈ 1.38 µM) and the “MIC/MID 50” value (Streptococcus pyogenes - Macrolide (MLS) resistant clinical isolate) was 0.50 µg/mL (≈ 1.38 µM). For the same compound, the “MIC/MID 50” value (Streptococcus sanguis - antibiotic-susceptible clinical isolate) was 0.50 µg/mL (≈ 1.38 µM) and the “MIC/MID 50” value (Streptococcus sanguis - macrolide-resistant clinical isolate) was 1.00 µg/mL (≈ 2.77 µM).
